The results in this text go back to patent US11485742B2, “2-azaspiro[3.4]octane derivatives as M4 agonists” (NOVARTIS AG, priority 2019, dated 2022).

The target of assay [1] is T1, human cloned CHRM4 receptor (Homo sapiens, UniProt P08173).
T1 construct: expressed in transfected cells; host or cells: CHO-K1 (M4_CHO)
T1 sequence (P08173 1-479): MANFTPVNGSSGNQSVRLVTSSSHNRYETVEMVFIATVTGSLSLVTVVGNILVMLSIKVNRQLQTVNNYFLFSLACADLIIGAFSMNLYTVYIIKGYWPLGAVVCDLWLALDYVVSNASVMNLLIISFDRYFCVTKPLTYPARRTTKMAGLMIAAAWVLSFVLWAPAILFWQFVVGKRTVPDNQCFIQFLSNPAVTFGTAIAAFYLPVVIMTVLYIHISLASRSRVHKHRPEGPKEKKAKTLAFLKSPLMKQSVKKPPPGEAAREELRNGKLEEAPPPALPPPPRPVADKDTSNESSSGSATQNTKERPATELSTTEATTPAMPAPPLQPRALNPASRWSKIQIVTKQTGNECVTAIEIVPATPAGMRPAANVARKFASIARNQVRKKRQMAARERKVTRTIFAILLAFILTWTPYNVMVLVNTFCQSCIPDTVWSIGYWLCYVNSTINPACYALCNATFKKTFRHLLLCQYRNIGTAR
The assay can be described thus: CHRM4 Ca++ Flux Assay (M4_CHO cells, agonist mode). It is filed as cell-based. The settings on record: for M4 FDSS PA % / Emax: Percent Activity (PA); for EC50: geometric mean if tested more than once, read-out: M4 FDSS EC50; for Emax: read-out: M4 FDSS PA %. The method, then: (§1) The above examples were characterized by measuring the intracellular mobilization of Ca^++ ions caused by signaling events mediated by the receptor. The Intra-cellular Calcium flux levels were captured by the highly sensitive Ca^++ indicator, Calcium Assay Kit (BD Biosciences; Catalog Number 640178. The fluorescent activity from all receptors were monitored by the fluorescent imager, FDSS 7000EX (Hamamatsu) over a span of 3 minutes. The change in Calcium flux was readily captured upon activation with the muscarinic orthosteric agonist, Carbachol.
(§2) CHO-K1 cells stably expressing the human cloned CHRM4 receptor (M4_CHO cells) were grown and maintained in a monolayer culture with F12/HAM (Life Technologies) supplemented with 10% Fetal Bovine Serum, 1X Pen-Strep, and 0.4 mg/mL Geneticin in a humidified atmosphere (5% CO2) at 37° C. The cultures were grown to 80-90% confluency in T150 flasks (Corning) and washed with 1×DPBS then lifted with 0.05% Trypsin (Life Technologies). The cells were harvested in growth media then spun (1K rpm, 3 minutes) and cryopreserved using Recovery Cell Culture Freezing Media (Gibco Technologies). Cells were stored in liquid nitrogen and thawed a day before the assay.
Prior to the day of the assay, stable M4_CHO cells were thawed and plated on 384 well black walled clear bottom TC treated plates (Greiner Cat #781091) at 12K cells/well using F12/HAM Media supplemented with 10% FBS (Life Technologies) and kept overnight in a humidified atmosphere (5% CO2) at 37° C. The next day, cells were loaded with 20 μL Ca^++ dye (BD Biosciences) using Loading Buffer (HBSS +Ca/+Mg, 20 mM HEPES, 2.5 mM Probenecid) and placed back in cell incubator for a minimum of 1 hour. After incubation, the dye was replaced with 45 μL Assay Buffer (HBSS −Ca/−Mg, 20 mM HEPES, 2.5 mM Probenecid) supplemented with 20 μM ATP (Sigma Aldrich) and kept at room temperature in the dark for 60 minutes before running on a cell imager. The FDSS 7000EX (Hamamatsu) was used to capture Ca^++ traces for a span of 3 minutes from cells treated with 11 point dose of compound in triplicate in order to generate dose response curves in agonist mode. All compounds were serially diluted in DMSO then prepared in Assay Buffer for Ca^++ flux studies. The dose response curves were generated from the average of triplicate wells obtained from each data point and used a non-linear regression of four parameter dose response algorithm. The Percent Activity (PA) was measured to EC100 of Carbachol.
(§3) If an Example was tested more than once in an assay, then the values below represent the geometric mean of the results from each independent experiment.

Assay [2] has as its target T2, human cloned CHRM2 receptor (Homo sapiens, UniProt P08172).
T2 construct: expressed in transfected cells; host or cells: CHO-K1 (M2_CHO)
T2 sequence (P08172 1-466): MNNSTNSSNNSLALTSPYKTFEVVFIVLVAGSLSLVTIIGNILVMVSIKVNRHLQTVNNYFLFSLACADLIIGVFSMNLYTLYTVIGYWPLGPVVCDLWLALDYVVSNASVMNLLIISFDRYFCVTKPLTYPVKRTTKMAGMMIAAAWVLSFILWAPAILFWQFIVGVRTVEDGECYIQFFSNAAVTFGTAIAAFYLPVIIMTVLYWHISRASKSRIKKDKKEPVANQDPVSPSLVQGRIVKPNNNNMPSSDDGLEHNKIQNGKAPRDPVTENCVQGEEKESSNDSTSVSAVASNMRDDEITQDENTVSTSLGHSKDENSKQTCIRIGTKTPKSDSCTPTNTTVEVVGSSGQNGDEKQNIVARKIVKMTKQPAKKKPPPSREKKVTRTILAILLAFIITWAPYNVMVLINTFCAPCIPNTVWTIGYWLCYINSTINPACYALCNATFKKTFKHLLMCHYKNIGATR
The assay can be described thus: CHRM2 Ca++ Flux Assay (M2_CHO cells, agonist mode). The settings on record: M2 CHO cells; for EC50: agonist mode, geometric mean if tested more than once, read-out: M2 FDSS EC50; for M2 FDSS PA % / Emax: Percent Activity (PA) measured to EC100 of Carbachol; for Emax: read-out: M2 FDSS PA %. Type of assay: cell-based. How it is done: as §1
as §2, with “cloned CHRM2” for “cloned CHRM4”, “receptor (M2_CHO” for “receptor (M4_CHO”, “Serum, 1×Pen-Strep,” for “Serum, 1X Pen-Strep,”, “1×DPBS and” for “1×DPBS then”, “were” for “were harvested in growth media”, “and frozen” for “and cryopreserved”
Prior to the day of the assay, stable M2 CHO cells were thawed and plated on Greiner 384 well TC treated plate at a density of 12K cells/well and kept overnight in a humidified atmosphere (5% CO2) at 37° C. The following day, the cells were loaded with Ca^++ dye (BD Biosciences) using Loading Buffer (HBSS +Ca/+Mg, 20 mM HEPES, 2.5 mM Probenecid) and placed back in cell incubator for a minimum of 1 hour and maximum of 2 hours. After incubation, the dye was replaced with Assay Buffer (HBSS −Ca/−Mg, 20 mM HEPES, 2.5 mM Probenecid) supplemented with 20 μM ATP (Sigma Aldrich) and kept at room temperature for 60 minutes prior before running on cell imager. The FDSS 7000EX (Hamamatsu) was used to acquire Ca^++ traces from cells in response to compound treatment and the data was used to generate dose response curves in agonist mode. All compounds were serially diluted in DMSO then prepared in Assay Buffer for Ca^−+ flux studies. The dose response curves were generated from the average of triplicate wells obtained from each data point and used a non-linear regression of four parameter dose response algorithm. The Percent Activity (PA) was measured to EC100 of Carbachol.
as §3

Molecules are shown by their SMILES.

The EC50 is the concentration giving half of the maximal effect. Take `Fc1ccc(OC[C@H]2CCO2)c(C2CCN([C@@H]3COC4(C3)CN(c3nncs3)C4)CC2)c1.O=C(O)C(F)(F)F` (single isomer, unassigned) [Example 2D, (S)-7-(4-(5-fluoro-2-(((R)-oxetan-2-yl)methoxy)phenyl)piperidin-1-yl)-2-(1,3,4-thiadiazol-2-yl)-5-oxa-2-azaspiro[3.4]octane trifluoroacetate or (S)-7-(4-(5-fluoro-2-(((S)-oxetan-2-yl)methoxy)phenyl)piperidin-1-yl)-2-(1,3,4-thiadiazol-2-yl)-5-oxa-2-azaspiro[3.4]octane trifluoroacetate]: in assay [1], the “M4 FDSS PA %” value was 72% and the EC50 was determined as 20 nM. Besides, in assay [2], the EC50 came to 446 nM and the “M2 FDSS PA %” value is recorded as 50%.

As to `Fc1cc(F)c(OC2CCOCC2)c(C2CCN([C@@H]3COC4(C3)CN(c3nnco3)C4)CC2)c1` [Example 2BB, (S)-7-(4-(3,5-difluoro-2-((tetrahydro-2H-pyran-4-yl)oxy)phenyl)piperidin-1-yl)-2-(1,3,4-oxadiazol-2-yl)-5-oxa-2-azaspiro[3.4]octane], in assay [1], the Emax worked out at 91% and the EC50 is 946 nM. Moreover, in assay [2], the EC50 turned out to be 4850 nM and the Emax amounted to 27%.

As to `Fc1ccc(C2CCOCC2)c(C2CCN([C@@H]3COC4(C3)CN(c3ncco3)C4)CC2)c1` [Example 4W, (S)-7-(4-(5-fluoro-2-(tetrahydro-2H-pyran-4-yl)phenyl)piperidin-1-yl)-2-(oxazol-2-yl)-5-oxa-2-azaspiro[3.4]octane], the Emax in assay [1] stood at 75%; in assay [2], 21%. For the same molecule, the EC50 in assay [1] turned out to be 21 nM; in assay [2], 5160 nM.

As to `Fc1cc(F)c(O[C@@H]2CCOC2)c(C2CCN([C@@H]3COC4(C3)CN(c3nnco3)C4)CC2)c1` [Example 2CC, (S)-7-(4-(3,5-difluoro-2-(((R)-tetrahydrofuran-3-yl)oxy)phenyl)piperidin-1-yl)-2-(1,3,4-oxadiazol-2-yl)-5-oxa-2-azaspiro[3.4]octane], the values for the Emax in assay [1] and in assay [2] were 79% and 37%, respectively. Further, the concentration for a half-maximal effect (EC50) in assay [1] was 168 nM; in assay [2], 2070 nM.

For the molecule `COc1ccc(Cl)cc1C1CCN([C@@H]2COC3(C2)CN(c2ncns2)C3)CC1` [Example 5A, (S)-7-(4-(5-chloro-2-methoxyphenyl)piperidin-1-yl)-2-(1,2,4-thiadiazol-5-yl)-5-oxa-2-azaspiro[3.4]octane], the Emax in assay [1] is 60%; in assay [2], 26%. The EC50 in assay [1] was 74 nM; in assay [2], > 25000 nM.

With `Fc1ccc(O[C@H]2CCOC2)c(C2CCN([C@@H]3COC4(C3)CN(c3nnco3)C4)CC2)c1` [Example 1H, (S)-7-(4-(5-fluoro-2-(((S)-tetrahydrofuran-3-yl)oxy)phenyl)piperidin-1-yl)-2-(1,3,4-oxadiazol-2-yl)-5-oxa-2-azaspiro[3.4]octane], in assay [1], the Emax amounted to 77% and the EC50 was determined as 34 nM. For the same molecule, in assay [2], the 50% effective concentration (EC50) turned out to be 801 nM and the Emax was found to be 30%.

As for `CC(C)(O)CCOc1ccc(F)cc1C1CCN([C@@H]2COC3(C2)CN(c2nncs2)C3)CC1` [Example 5P, (S)-4-(2-(1-(2-(1,3,4-thiadiazol-2-yl)-5-oxa-2-azaspiro[3.4]octan-7-yl)piperidin-4-yl)-4-fluorophenoxy)-2-methylbutan-2-ol], in assay [1], the Emax was 58% and the EC50 came to 86 nM. In addition, in assay [2], the EC50 is 9700 nM and the Emax came out at 25%.

As for `Fc1ccc(OC[C@H]2CCO2)c(C2CCN([C@@H]3COC4(C3)CN(c3nncs3)C4)CC2)c1.O=C(O)C(F)(F)F` (single isomer, unassigned) [Example 2C, (S)-7-(4-(5-fluoro-2-(((R)-oxetan-2-yl)methoxy)phenyl)piperidin-1-yl)-2-(1,3,4-thiadiazol-2-yl)-5-oxa-2-azaspiro[3.4]octane trifluoroacetate or (S)-7-(4-(5-fluoro-2-(((S)-oxetan-2-yl)methoxy)phenyl)piperidin-1-yl)-2-(1,3,4-thiadiazol-2-yl)-5-oxa-2-azaspiro[3.4]octane trifluoroacetate], in assay [1], the “M4 FDSS PA %” value turned out to be 72% and the EC50 was 94 nM. Further, in assay [2], the EC50 was 321 nM and the “M2 FDSS PA %” value is given as 39%.

In the case of `CC1(C)C[C@@H](Oc2ccc(F)cc2C2CCN([C@@H]3COC4(C3)CN(c3nnco3)C4)CC2)CO1` (single isomer, unassigned) [Example 2O, (S)-7-(4-(2-(((R)-5,5-dimethyltetrahydrofuran-3-yl)oxy)-5-fluorophenyl)piperidin-1-yl)-2-(1,3,4-oxadiazol-2-yl)-5-oxa-2-azaspiro[3.4]octane or (S)-7-(4-(2-(((S)-5,5-dimethyltetrahydrofuran-3-yl)oxy)-5-fluorophenyl)piperidin-1-yl)-2-(1,3,4-oxadiazol-2-yl)-5-oxa-2-azaspiro[3.4]octane], in assay [1], the “M4 FDSS PA %” value is listed as 86% and the concentration giving a half-maximal response (EC50) amounted to 51 nM. For the same molecule, in assay [2], the EC50 came to 581 nM and the “M2 FDSS PA %” value came out at 37%.

As for `Fc1ccc(O[C@@H]2CCOC2)c(C2CCN([C@@H]3COC4(C3)CN(c3ncco3)C4)CC2)c1` [Example 4D, (S)-7-(4-(5-fluoro-2-(((R)-tetrahydrofuran-3-yl)oxy)phenyl)piperidin-1-yl)-2-(oxazol-2-yl)-5-oxa-2-azaspiro[3.4]octane], in assay [1], the Emax came out at 77% and the 50% effective concentration (EC50) stood at 7 nM. For the same molecule, in assay [2], the EC50 is > 25000 nM and the Emax amounted to 17%.
